The values below come from US5744424A.

For data set [1] the following is noted: water; 18° C.; cited from earlier work.
The conditions of data set [2]: cited from earlier work.
The subject of data set [3] is plant species. The note with it: cited from earlier work.
Data set [4] is described as follows: physchem.
Description: where Percent "S" is the per unit volume of N^6 BA expressed as a percentage and "N" is the Normality of the solution after dissolution of N^6 BA in the solution.
Data set [5] is described as follows: physchem. The note with it: water koh 0.0025 n.
Description: The solubility data enable address a second underlying problem encountered when the aqueous hydroxide solution is employed.
The test system of data set [6] is turf grasses. Put plainly: Force required to extract grass sod plugs (root density, FIG. 4).
For data set [7] the following is noted: cited from earlier work. The source holds these as a separate data set.

≈ marks a conversion by molar mass, not a printed value.

For `[Ca+2].[OH-].[OH-]` [Calcium hydroxide], in data set [1], the “normality of saturated solution” value is listed as 9.6.
As for `[K+].[OH-]` [KOH, potassium hydroxide], in data set [1], the “normality of saturated solution” value is 18.0.
`c1ccc(CNc2ncnc3nc[nH]c23)cc1` [N^6 BA]: the “dissolved concentration in mineral acids” value in data set [2] (mineral acids) is reported as “approximately 5%”. Further, the solubility in water result in data set [2] (water) was “about 0.00044 grams per 100 milliliters”. Besides, the “responses elicited in plants” value in data set [3] (general) was “promotion of cell division, inhibition of respiration, increasing retention of water and drought resistance, enhancing root and top growth with change in root/top ratios as well as shortening plant internodes”. Further, the chlorophyll retention entry in data set [3] (pre and post harvest commodities) was “increase chlorophyll retention”. Also, the solubility (in general, how much of the substance goes into solution per volume) was around 455 mg/mL (≈ 2020 mM) in data set [4] (aqueous koh 2.875 n); around 540 mg/mL (≈ 2400 mM) in data set [4] (koh in 95% ethanol, organic solvent or mixture); 0.062 mg/mL (≈ 0.275 mM) in data set [5]. For the same molecule, the “efficacy of N^6 BA in presence of iron” value in data set [6] (large amount of ferrous iron ions) was “a decrease in the efficacy of N^6 BA”.
For `[Na+].[OH-]` [NaOH, sodium hydroxide], the “normality of saturated solution” value in data set [1] is on record as 21.0.
Regarding `O.O.O.O.O.O.O.O=S(=O)([O-])[O-].[Fe+2]` [iron, Ferrous sulphate heptahydrate], in data set [7], the “practical concentration of iron in liquid spray concentrates” value is listed as 5-6%. For the same molecule, in data set [6] (iron to N^6 BA molecular ratio of about 200:1 or greater), the “root development” value is reported as “substantially decreases root development”.
Take `[Mg+2].[OH-].[OH-]` [magnesium hydroxide]: the “normality of saturated solution” value in data set [1] is reported as 8.2.
Regarding `[OH-].[OH-].[Zn+2]` [zinc hydroxide], the “normality of saturated solution” value in data set [1] is reported as 9.4.
